The values that follow come from ChEMBL document CHEMBL4419178, “Yap1 inhibitors that target the interaction of yap1 with oct4” (2018).

The subject of series [1] is NCI-H1650. Briefly: Inhibition of self-renewal capacity in stem-like side-population cells of human NCI-H1650 cells assessed as reduction in number of spheres at 5 to 50 uM incubated for 10 days by sphere formation assay. In kind it is functional, cell-based.
The test system of series [2] is NCI-H1650. Briefly: Cytotoxicity in human NCI-H1650 cells assessed as induction of cell killing in presence of cancer associated fibroblasts at 20 to 50 uM incubated for 24 to 48 hrs by cytotracker-red/green dye staining based immunofluorescence microscopy. In kind it is functional.
Series [3] can be described thus: Cytotoxicity in human cancer associated fibroblasts at 20 to 50 uM incubated for 24 to 48 hrs by cytotracker-red/green dye staining based immunofluorescence microscopy.
Series [4] concerns NCI-H1650. Briefly: Inhibition of self-renewal capacity in stem-like side-population cells of human NCI-H1650 cells assessed as reduction in number of spheres at 50 uM incubated for 10 days by sphere formation assay. The format is functional, cell-based.
Series [5] addresses Transcriptional coactivator YAP1 (Homo sapiens) (UniProt P46937). Briefly: Inhibition of YAP1 in human A549 cells assessed as disruption in YAP1/OCT4 co-localization at 25 uM incubated for 48 hrs by double immunofluorescence based assay. The format is cell-based.
Series [6] shares this target. Briefly: Inhibition of YAP1 (unknown origin) assessed as disruption in YAP1/OCT4 interaction at 5 uM by ELISA relative to control.
Series [7] shares this target. Briefly: Inhibition of YAP1 (unknown origin) assessed as disruption in YAP1/OCT4 interaction at 50 uM by cell based assay.
The target is the same in series [8]. Briefly: Inhibition of YAP1 in human NCI-H1650 cells assessed as disruption in YAP1/OCT4 interaction at 20 to 50 uM incubated for 48 hrs by proximity ligation assay. In kind it is cell-based.
Series [9] concerns NCI-H1650. Briefly: Inhibition of YAP1 in human NCI-H1650 cells assessed as disruption in YAP1/TEAD2 interaction at 20 to 50 uM incubated for 48 hrs by proximity ligation assay. In kind it is cell-based.
Series [10] concerns the target Transcriptional coactivator YAP1 (Homo sapiens) (UniProt P46937). Briefly: Inhibition of YAP1 (unknown origin) assessed as disruption in YAP1/OCT4 interaction at 10 uM by ELISA relative to control.
Series [11] concerns NCI-H1650. Briefly: Inhibition of self-renewal capacity in stem-like side-population cells of human NCI-H1650 cells assessed as reduction in number of spheres at 1 to 20 uM incubated for 10 days by sphere formation assay. The format is functional, cell-based.
The next series has as its system NCI-H146. Briefly: Inhibition of self-renewal capacity in methotrexate insensitive stem-like side-population cells of human NCI-H146 cells assessed as reduction in number of spheres at 2 uM incubated for 3 days after 7 days methotrexate exposure by sphere formation assay. In kind it is functional.

The source made the active and inactive calls. No cut-off for these calls is given here. Where only a bound is given, the exact number is not on record here.

Chain of Transcriptional coactivator YAP1 (Homo sapiens) (P46937 whole entry): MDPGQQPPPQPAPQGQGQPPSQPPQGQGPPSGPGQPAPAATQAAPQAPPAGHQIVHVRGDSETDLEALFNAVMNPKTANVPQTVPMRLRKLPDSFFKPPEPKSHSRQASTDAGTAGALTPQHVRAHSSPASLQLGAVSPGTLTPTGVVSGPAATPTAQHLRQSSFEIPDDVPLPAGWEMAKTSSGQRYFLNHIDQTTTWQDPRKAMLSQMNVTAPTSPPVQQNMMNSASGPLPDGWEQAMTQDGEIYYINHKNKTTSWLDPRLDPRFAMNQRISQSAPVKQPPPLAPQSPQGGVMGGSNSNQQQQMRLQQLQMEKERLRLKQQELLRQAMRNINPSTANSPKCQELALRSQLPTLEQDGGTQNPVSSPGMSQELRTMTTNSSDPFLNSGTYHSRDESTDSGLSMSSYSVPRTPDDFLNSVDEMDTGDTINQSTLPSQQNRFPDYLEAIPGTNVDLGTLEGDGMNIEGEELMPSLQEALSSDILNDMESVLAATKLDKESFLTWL

Take `O=[N+]([O-])c1[nH]cnc1/C=C/c1ccccc1`: the inhibition entry (in the series on NCI-H1650 [1]; with NCI-H1650 [4]; in [5]) was “Active” each time. Besides, the result with NCI-H1650 [2] was Active. Further, the Activity result in series [3] was “Non-Toxic”.

For the compound `CCOC(=O)/C(C#N)=C/c1c[nH]c2ccccc12`, the inhibition entry in the series with NCI-H1650 [4] was “Active”.

Turning to `CC1Oc2cc3c(-c4c(O)cc(O)c5c(O)c6c(cc45)OC(C)C(C)C6=O)c(O)cc(O)c3c(O)c2C(=O)C1C` (stereo unspecified), the result in the series on NCI-H1650 [2] was Active. Moreover, the Activity entry in series [3] was “Non-Toxic”. In addition, the inhibition entry with NCI-H1650 [4] is “Active”.

`CC(C)(C)OC(=O)N1CCC(CC(=O)N[C@@H](Cc2ccc(OCc3ccccc3)cc2)C(=O)NC2CCCCC2)CC1`: the inhibition in series [6] was found to be 75%; in [7], 71%.

As for `COC(=O)[C@H](Cc1ccc(O)cc1)NC(=O)CC1CCN(C(=O)OC(C)(C)C)CC1`, the inhibition in [6] turned out to be 78%; in [7], 70%.

With `COC(=O)[C@H](Cc1ccc(O)cc1)NC(=O)CC1CCN(C(=O)CCc2ccccc2)CC1`, the values for the inhibition in series [6] and in series [7] were 97% and over 77%, respectively.

On to `Oc1ccccc1/N=C/c1c(O)ccc2ccccc12`, for which the inhibition result (with NCI-H1650 [1]; in [8]; in the series on NCI-H1650 [4]; in [5]; with NCI-H1650 [9]) was “Active” each time. Besides, the outcome with NCI-H1650 [2] was Active. In series [3], the Activity entry is reported as “Non-Toxic”.

As to `O=C(CC1CCN(C(=O)CCc2ccccc2)CC1)N[C@@H](Cc1ccc(OCc2ccccc2)cc1)C(=O)NC1CC1`, the inhibition in [10] is 90%; in [6], 90%; in [7], over 73%.

As to `O=C1NC2C(O)C(O)C(O)C(O)C2c2cc3c(c(O)c21)OCO3` (stereo unspecified), the inhibition entry in the series on NCI-H1650 [4] was “Active”.

In the case of `COC(=O)[C@H](Cc1ccc(OCc2ccccc2)cc1)NC(=O)CC1CCN(C(=O)CCc2ccccc2C)CC1`, in the series on NCI-H1650 [11], the inhibition entry is “Active”.

Turning to `COC(=O)[C@H](Cc1ccc(OCc2ccccc2)cc1)NC(=O)CC1CCN(C(=O)CC(c2ccccc2)c2ccccc2)CC1`, the inhibition entry with NCI-H1650 [11] is “Active”.

For `CC(C)(C)OC(=O)N1CCC(CC(=O)N[C@@H](Cc2ccc(OCc3ccccc3)cc2)C(=O)O)CC1`, the inhibition in series [6] turned out to be 75%; in [7], 74%.

With `O=C(CC1CCN(C(=O)CCc2ccccc2)CC1)N[C@@H](Cc1ccc(OCc2ccccc2)cc1)C(=O)NC1CCCC1`, the values for the inhibition in series [6] and in [7] were 90% and over 70%, respectively.

As for `COC(=O)[C@H](Cc1ccc(OCc2ccccc2)cc1)NC(=O)CC1CCN(C(=O)CCc2cccc(C)c2)CC1`, the inhibition result with NCI-H1650 [11] is “Active”.

`COCCn1c2nc(=O)n(-c3ccccc3)c(=O)c-2nc2ccccc21`: the result with NCI-H1650 [2] was Active. Also, the inhibition entry (in the series on NCI-H1650 [11]; in series [8]; in the series with NCI-H1650 [4]; in series [5]; in the series with NCI-H1650 [9]) was “Active” throughout. Besides, the Activity entry in series [3] is on record as “Non-Toxic”.

On to `COC(=O)[C@H](Cc1ccc(OCc2ccccc2)cc1)NC(=O)CC1CCN(Cc2ccccc2)CC1`, for which the inhibition in series [10] turned out to be 57%; in series [7], 70%.

Regarding `O=C(CC1CCN(C(=O)CCc2ccccc2)CC1)N[C@@H](Cc1ccc(OCc2ccccc2)cc1)C(=O)NC1CCCCC1`, the inhibition is 90% in series [6] and 70% in series [7].

For the compound `CCOc1ccc(CCC(=O)N2CCC(CC(=O)N[C@@H](Cc3ccc(OCc4ccccc4)cc3)C(=O)O)CC2)cc1`, the inhibition result (in series [8]; in the series on NCI-H1650 [9]) was “Active” each time.

As to `CCOc1ccc(CCC(=O)N2CCC(CC(=O)N[C@@H](Cc3ccc(OCc4ccccc4)cc3)C(=O)OC)CC2)cc1`, in the series on NCI-H1650 [11], the inhibition entry was “Active”.

For the compound `COC(=O)[C@H](Cc1ccc(OCc2ccccc2)cc1)NC(=O)CC1CCN(C(=O)c2ccccc2)CC1`, in the series with NCI-H1650 [1], the inhibition result is “Active”. Moreover, the inhibition stood at 75% in series [10] and 84% in [7].

As for `NC(=O)[C@H](Cc1ccc(OCc2ccccc2)cc1)NC(=O)CC1CCN(C(=O)CCc2ccccc2)CC1`, the inhibition result with NCI-H146 is “Active”.

As for `O=C(CC1CCN(C(=O)CCc2ccccc2)CC1)N[C@@H](Cc1ccc(OCc2ccccc2)cc1)C(=O)NCC1CC1`, the inhibition in [6] is 95%; in [7] it was over 84%.

On to `O=C(CC1CCN(C(=O)CCc2cccc(F)c2)CC1)N[C@@H](Cc1ccc(OCc2ccccc2)cc1)C(=O)O`, for which the inhibition result with NCI-H1650 [1] is “Active”.

Consider `CC(C)NC(=O)[C@H](Cc1ccc(OCc2ccccc2)cc1)NC(=O)CC1CCN(C(=O)OC(C)(C)C)CC1`, for which the inhibition was determined as 95% in [6] and 83% in series [7].

With `O=C(CC1CCN(C(=O)CCc2ccccc2)CC1)N[C@@H](Cc1ccc(OCc2ccccc2)cc1)C(=O)NC1CCC1`, the inhibition stood at 80% in [10] and 65% in [7].

For `COc1cc2c(cc1OC)[N+]([O-])=C(c1ccccc1)C2=O`, in the series with NCI-H1650 [2], the outcome was Active. Moreover, the Activity result in [3] is reported as “Non-Toxic”. The inhibition entry in [5] was “Active”.
